Laboratory results as given in patent US5166214A, “Use of imidazoles for the treatment of atherosclerosis” (priority 1990, dated 1992).

Tests used:
[1] = biological target: T1, Acyl-CoA: Cholesterol Acyltransferase (ACAT) (Rattus norvegicus, UniProt Q7TQM4); assay: Inhibition of acyl-CoA: cholesterol acyltransferase (ACAT) in hepatic microsomes (in vitro); assay type: biochemical, rat (male Sprague Dawley); details: rat hepatic microsomes, 75 μM 14C-oleoyl-CoA, pH 7.4, 37° C.; read-out: In Vitro ACAT IC50
T1 construct: Microsomes were obtained by differential centrifugation; from tissue; host or cells: liver microsomes of male Sprague Dawley rats
T1 sequence (Q7TQM4 1-524): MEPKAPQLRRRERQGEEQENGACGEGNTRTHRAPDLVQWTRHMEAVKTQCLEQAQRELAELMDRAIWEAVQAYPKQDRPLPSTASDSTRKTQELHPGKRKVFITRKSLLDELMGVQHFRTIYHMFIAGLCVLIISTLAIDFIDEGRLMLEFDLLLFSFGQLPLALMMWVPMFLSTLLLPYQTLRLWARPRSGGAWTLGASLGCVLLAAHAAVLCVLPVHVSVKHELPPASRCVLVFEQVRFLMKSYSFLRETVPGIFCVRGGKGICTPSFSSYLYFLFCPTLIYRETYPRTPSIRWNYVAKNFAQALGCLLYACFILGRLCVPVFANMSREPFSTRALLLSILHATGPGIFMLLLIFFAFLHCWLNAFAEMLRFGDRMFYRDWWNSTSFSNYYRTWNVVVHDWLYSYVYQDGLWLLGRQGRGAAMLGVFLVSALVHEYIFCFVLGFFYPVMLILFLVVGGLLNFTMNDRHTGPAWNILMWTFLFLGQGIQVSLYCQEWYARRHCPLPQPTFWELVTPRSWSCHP
Procedure: A. Assay of the Inhibition of Acyl-CoA: Cholesterol Acyltransferase (ACAT) in Hepatic Microsomes
The ability of the compounds to inhibit ACAT, the enzyme responsible for the intracellular synthesis of cholesteryl esters, was tested as follows. Male Sprague Dawley rats weighing 150-300 g, were fed rat chow ad libitum. The animals were fasted for twenty-four hours prior to being sacrificed by decapitation. The livers were perfused in situ with 50 ml of cold 0.25M sucrose, excised, and homogenized in three volumes of 0.1M phosphate buffer, pH 7.4, that contained 0.5 mM EDTA (ethylenediaminetetraacetic acid), 1.0 mM glutathione, 0.25M sucrose and […]. Microsomes were obtained by differential centrifugation; the supernatant from an initial spin at 15,000×g for 15 minutes was centrifuged at 105,000×g for 1 hour to pellet the microsomes. The microsomes were suspended in homogenization buffer, reisolated by centrifugation, and stored at -70° C. Microsomes were used within one month of preparation.
The control assay in a final volume of 200 μl consisted of 200 μg of microsomal protein, 75 μM ^14 C-oleoyl-CoA (10,000 dpm/nmol) in 0.1M phosphate, pH 7.4, that contained 1 mM glutathione. Compounds were added in 5 μl of DMSO (dimethyl sulfoxide) and additional controls were run with DMSO only. All components, except the oleoyl-CoA, were preincubated for 15 min. at 37° C. prior to the initiation of the reaction by the addition of oleoyl-CoA. The assay was terminated after 10 min by the addition of 4 ml of chloroform:methanol (2:1, v/v). 20,000 dpm of ^3 H-cholesteryl oleate and 10 μg of unlabeled cholesteryl oleate and oleic acid were added as an internal standard and carriers, respectively. After allowing 10 min. for lipid extraction, the samples were centrifuged at 1,000×g for 10 min. to separate the solvent layers. The chloroform layer containing the neutral lipids was spotted onto a Baker SI250-Pa silica gel TLC plate and the plate developed using a hexane: diethyl ether: acetic acid (170:30:1 v/v/v) mobile phase. The lipids were visualized by their interaction with iodine vapor and the cholesteryl ester spot was scraped into a scintillation vial and counted.

[2] = system: murine macrophage-like cell line J774.A1; assay: Inhibition of cholesterol esterification in mammalian cells (macrophage assay); assay type: cell-based; details: J774.A1 macrophages loaded with ac-LDL, 14C-oleic acid; read-out: Cholesterol Esterification IC50
Method in brief: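 Murine J774.A1 macrophages at 37 °C received 34 μg acetylated human LDL in 10% FBS-DMEM from 24 h, compound in DMSO at 41 h, then a 0.1 mM 14C-oleic acid–BSA pulse from 43 to 45 h. Labelled cholesteryl ester was separated by TLC, counted and normalised to Lowry protein.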

SMILES	IC50 [1]	IC50 [2]
CCCCCCCN(CCCCCSc1nc(-c2ccccc2OC)c(-c2ccccc2OC)[nH]1)C(=O)Nc1ccc(F)cc1F [Example 196, N-[5-[4,5-bis(2-methoxyphenyl)-1H-imidazol-2-ylthio]pentyl]-N'-(2,4-difluorophenyl)-N-heptylurea]	300 nM	1400 nM
CCCCCCCN(CCCCCSc1nc(-c2ccc(N(C)C)cc2)c(-c2ccc(N(C)C)cc2)[nH]1)C(=O)Nc1ccc(F)cc1F [Example 197, N-[5-[4,5-bis[4-(dimethylamino)phenyl]-1H-imidazol-2-ylthio]pentyl]-N'-(2,4-difluorophenyl)-N-heptylurea]	119 nM	100 nM
CCCCCCCN(CCCCCSc1nc(-c2ccc(N(C)C)cc2)c(-c2ccc(N(C)C)cc2)[nH]1)C(=O)Nc1ccc(F)cc1F [Example 198]	40 nM	60 nM
CCCCCCCN(CCCCCSc1nc(C2CCCCC2)c(C2CCCCC2)[nH]1)C(=O)Nc1ccc(F)cc1F [Example 199, N-[5-(4,5-dicyclohexyl-1H-imidazol-2-ylthio)pentyl]-N'-(2,4-difluorophenyl)-N-heptylurea]	20 nM	600 nM
CCCCCCCN(CCCCCSc1nc(-c2ccccc2)c(-c2ccc(N(C)C)cc2)[nH]1)C(=O)Nc1ccc(F)cc1F [Example 200]	710 nM	800 nM
CCCCCCCN(CCCCCSc1nc(-c2ccco2)c(-c2ccco2)[nH]1)C(=O)Nc1ccc(F)cc1F [Example 201]	200 nM	500 nM
CCCCCCCN(CCCCCSc1nc(-c2ccc(OC)cc2)c(-c2ccc(OC)cc2)[nH]1)C(=O)NC(C)C [Example 202, N-[5-[4,5-bis(4-methoxyphenyl)-1H-imidazol-2-ylthio]pentyl]-N-heptyl-N'-(1-methylethyl)urea]	220 nM	4 nM
COc1ccc(-c2nc(SCCCCCN(C)C(=O)Nc3ccc(F)cc3F)[nH]c2-c2ccc(OC)cc2)cc1 [Example 204]	500 nM	400 nM
CCCCCCCN(CCCCCSc1nc(-c2ccc(N(C)C)cc2)c(-c2ccc(N(C)C)cc2)[nH]1)C(=O)NC(C)C [Example 205, N-[5-[4,5-bis[4-(dimethylamino)phenyl]-1H-imidazol-2-ylthio]pentyl]-N-heptyl-N'-(1-methylethyl)urea]	74 nM	3 nM
CCCCCCCCNC(=O)N(CCCCCSc1nc(-c2ccccc2)c(-c2ccccc2)[nH]1)c1ccccc1 [Example 207, N-[5-(4,5-diphenyl-1H-imidazol-2-ylthio)pentyl]-N'-octyl-N-phenylurea]	9 nM	600 nM
CCCCCCCN(CCCCCSc1nc(-c2ccc(O)cc2)c(-c2ccc(O)cc2)[nH]1)C(=O)Nc1ccc(F)cc1F [Example 209, N-[5-[4,5-bis(4-hydroxyphenyl)-1H-imidazol-2-ylthio]pentyl]-N'-(2,4-difluorophenyl)-N-heptylurea]	1400 nM	4800 nM
CCCCCCCN(CCCCCSc1nc(C(C)C)c(C(C)C)[nH]1)C(=O)NC(C)C [Example 210]	17 nM	800 nM
CCCCCCCN(CCCCCSc1nc2c([nH]1)-c1ccccc1OCOc1ccccc1-2)C(=O)Nc1ccc(F)cc1F [Example 211, N-[5-(1H,9H-dibenz[4,5:8,9][1,3]dioxonino[6,7-d]imidazol-2-ylthio)-pentyl]-N'-(2,4-difluorophenyl)-N-heptylurea]	32 nM	700 nM
CCCCCCCN(CCCCCSc1nc2c([nH]1)-c1ccccc1Oc1ccccc1-2)C(=O)Nc1ccc(F)cc1F [Example 212, N-[5-(1H-dibenz[2,3:6,7]oxedino[4,5-d]imidazol-2-ylthio)pentyl]-N'-(2,4-difluorophenyl)-N-heptylurea]	60 nM	1700 nM
CCCCCCCN(CCCCCSc1nc(-c2ccc(C(F)(F)F)cc2)c(-c2ccc(C(F)(F)F)cc2)[nH]1)C(=O)Nc1ccc(F)cc1F [Example 258]	40000 nM	25000 nM
CCCCCCCN(CCCCCSc1nc(-c2ccccc2)c(-c2ccccc2)[nH]1)C(=S)NCCC [Example 299, N-[5-(4,5-diphenyl-1H-imidazol-2-ylthio)pentyl]-N-heptyl-N'-propylthiourea]	140 nM	1200 nM
CCCCCCCN(CCCCCSc1nc(-c2ccccc2)c(-c2ccccc2)[nH]1)C(=S)Nc1cccc(F)c1 [Example 300, N-[5-(4,5-diphenyl-1H-imidazol-2-ylthio)pentyl]-N'-(3-fluorophenyl)-N-heptylthiourea]	130 nM	900 nM
CCCCCCCN(CCCCCSc1nc(-c2ccccc2)c(-c2ccccc2)[nH]1)C(=O)CCC [Example 341, N-[5-(4,5-diphenyl-1H-imidazol-2-ylthio)pentyl]-N-heptylbutanamide]	3 nM	100 nM
CCCCCCCN(CCCCCSc1nc(-c2ccccc2)c(-c2ccccc2)[nH]1)C(=O)CCCC [Example 342, N-[5-(4,5-diphenyl-1H-imidazol-2-ylthio)pentyl]-N-heptylpentanamide]	30 nM	1600 nM
CCCCCCCN(CCCCCSc1nc(C(C)C)c(C(C)C)[nH]1)C(=O)CC1CCCCC1 [Example 347, N-[5-[4,5-bis(1-methylethyl)-1H-imidazol-2-ylthio]pentyl]-N-heptylcyclohexaneacetamide]	30 nM	300 nM
CCCCCCCN(CCCCCSc1nc(-c2ccc(OC)cc2)c(-c2ccc(OC)cc2)[nH]1)C(=O)CCC [Example 348, N-[5-[4,5-bis(4-methoxyphenyl)-1H-imidazol-2-ylthio]pentyl]-N-heptylbutanamide]	700 nM	200 nM
CCCCCCCN(CCCCCSc1nc(-c2ccc(OC)cc2)c(-c2ccc(OC)cc2)[nH]1)C(=O)Cc1ccc(Cl)c(Cl)c1 [Example 349]	200 nM	90 nM
CCCCCCCN(CCCCCSc1nc(-c2ccc(OC)cc2)c(-c2ccc(OC)cc2)[nH]1)C(=O)Cc1c(F)c(F)c(F)c(F)c1F [Example 350]	605 nM	50 nM
CCCCCCCN(CCCCCSc1nc(-c2ccc(OC)cc2)c(-c2ccc(OC)cc2)[nH]1)C(=O)Cc1ccc(F)cc1F [Example 351, N-[5-[4,5-bis(4-methoxyphenyl)-1H-imidazol-2-ylthio]pentyl]-2,4-difluoro-N-heptylbenzeneacetamide]	250 nM	40 nM
CCCCCCCN(CCCC)CCCCCSc1nc(-c2ccccc2)c(-c2ccccc2)[nH]1 [Example 352]	300 nM	2200 nM
CCCCCCCN(CCCCCSc1nc(-c2ccc(OC)cc2)c(-c2ccc(OC)cc2)[nH]1)CCc1ccc(F)cc1F [Example 353, N-[5-[4,5-bis(4-methoxyphenyl)-1H-imidazol-2-ylthio]pentyl]-2,4-difluoro-N-heptylbenzeneethaneamine]	240 nM	80 nM
CCCCCCCN(CCCCCSc1nc(-c2ccc(N(C)C)cc2)c(-c2ccc(N(C)C)cc2)[nH]1)C(=O)CC1CCCCC1 [Example 354]	50 nM	20 nM
CCCCCCCN(CCCCCSc1nc(-c2ccc(OC)cc2)c(-c2ccc(OC)cc2)[nH]1)C(=O)CC1CCCCC1 [Example 355, N-[5-[4,5-bis(4-methoxyphenyl)-1H-imidazol-2-ylthio]pentyl]-N-heptylcyclohexaneacetamide]	10 nM	30 nM
